Test results reported in patent publication US7511059B2, “Thiazolidinones, their production and use as pharmaceutical agents” (Schering Ag, priority 2005, dated 2009).

Tests used:
Recombinant human Plk-1 = molecular target: T1, Recombinant human Plk-1 (Homo sapiens, UniProt P53350); test: PLK Enzyme Assay; type: biochemical; details: biotinylated casein and 33P-γ-ATP as substrate, 90 minutes at room temperature, read-out: PLK-1 IC50 [nM] Inhibition
T1 construct: 6xHis; made in house; host or cells: baculovirus-infected Hi5 insect cells
Description: Recombinant human Plk-1 (6× His) was purified from baculovirus-infected insect cells (Hi5).
10 ng of (produced in a recombinant manner and purified) PLK enzyme is incubated for 90 minutes at room temperature with biotinylated casein and 33P-γ-ATP as a substrate in a volume of 15 μl in 384-well Greiner small-volume microtiter plates (final concentrations in the buffer: 660 ng/ml of PLK; 0.7 lmol of casein, 0.5 gmol of ATP incl. 400 nCi/ml of 33P-γ-ATP; 10 mmol of MgCl2, 1 mmol of MnCl2; 0.01% NP40; 1 mmol of DTT, protease inhibitors; 0.1 mmol of Na2VO3 in 50 mmol of HEPES, pH 7.5). To complete the reaction, 5 μl of stop solution (500 μmol of ATP; 500 mmol of EDTA; 1% Triton X100; 100 mg/ml of streptavidin-coated SPA beads in PBS) is added. After the microtiter plate is sealed by film, the beads are sedimented by centrifuging (10 minutes, 1500 rpm). The incorporation of 33P-γ-ATP in casein is intended as a measurement of enzyme activity by β-counting.
Test substances are used in various concentrations (0 μmol, as well as in the range of 0.01-30 μmol). The final concentration of the solvent dimethyl sulfoxide is 1.5% in all batches.

[1] = tested on: human MaTu breast tumor cells; test: Proliferation Assay; type: cell-based; details: 96 h, incubated 4 days, crystal violet, read-out: Inhibition of the Tumor Cell Proliferation (MaTu) IC50
Description: Cultivated human MaTu breast tumor cells were flattened out at a density of 5000 cells/measuring point in a 96-well multititer plate in 200 μl of the corresponding growth medium. After 24 hours, the cells of one plate (zero-point plate) were colored with crystal violet (see below), while the medium of the other plates was replaced by fresh culture medium (200 μl), to which the test substances were added at various concentrations (0 μm, as well as in the range of 0.01-30 μm; the final concentration of the solvent dimethyl sulfoxide was 0.5%). The cells were incubated for 4 days in the presence of test substances. The cell proliferation was determined by coloring the cells with crystal violet: the cells were fixed by adding 20 μl/measuring point of an 11% glutaric aldehyde solution for 15 minutes at room temperature. After three washing cycles of the fixed cells with water, the plates were dried at room temperature. The cells were colored by adding 100 μl/measuring point of a 0. 1% crystal violet solution (pH was set at 3 by adding acetic acid). After three washing cycles of the colored cells with water, the plates were dried at room temperature. The dye was dissolved by adding 100 μl/measuring point of a 10% acetic acid solution. The extinction was determined by photometry at a wavelength of 595 nm. The change of cell growth, in percent, was calculated by standardization of the measured values to the extinction values of the zero-point plate (=0%) and the extinction of the untreated (0 μm) cells (=100%).

T1 sequence (P53350 whole entry): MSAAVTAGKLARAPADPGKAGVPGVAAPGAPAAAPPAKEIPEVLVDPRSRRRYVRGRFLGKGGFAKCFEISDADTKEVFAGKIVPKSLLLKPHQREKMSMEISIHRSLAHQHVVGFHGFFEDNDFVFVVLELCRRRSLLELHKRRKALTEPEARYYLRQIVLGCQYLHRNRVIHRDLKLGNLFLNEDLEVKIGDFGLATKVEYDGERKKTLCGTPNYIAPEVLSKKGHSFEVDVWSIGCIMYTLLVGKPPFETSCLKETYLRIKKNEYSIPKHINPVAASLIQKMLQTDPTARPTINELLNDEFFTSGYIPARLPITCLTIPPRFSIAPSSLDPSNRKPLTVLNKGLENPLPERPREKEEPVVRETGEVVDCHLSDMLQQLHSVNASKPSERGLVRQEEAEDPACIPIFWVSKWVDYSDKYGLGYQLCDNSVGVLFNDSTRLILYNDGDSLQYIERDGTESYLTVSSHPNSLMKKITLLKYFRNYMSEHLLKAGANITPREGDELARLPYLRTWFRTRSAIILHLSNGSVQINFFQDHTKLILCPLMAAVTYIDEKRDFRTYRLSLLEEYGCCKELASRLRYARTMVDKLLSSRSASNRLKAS

Row | SMILES | IC50 (Recombinant human Plk-1) | IC50 [1]
1 | CCn1c(=C(C#N)C2=NCC(C)O2)sc(=CNc2cccc(NC(=O)C(C)(C)C)c2)c1=O (mixture of isomers) [Example 15, N-(3-{[2-[1-Cyano-1-(5-methyl-4,5-dihydro-oxazol-2-yl)-meth-(E or Z)-ylidene]-3-ethyl-4-oxo-thiazolidin-(5-(E/Z))-ylidenemethyl]-amino}-phenyl)-2,2-dimethyl-propionamide] | 55 nM | 2100 nM
2 | CCn1c(=C(C#N)C2=N[C@H]3CCC[C@H]3O2)sc(=CNc2cccc(NC(=O)C(C)(C)O)c2)c1=O (mixture of isomers) [Example 31, N-(3-{[2-[(3aS,6aR)-1-Cyano-1-4,5,6,6a-tetrahydro-3aH-cyclopentaoxazol-2-yl-meth-(E or Z)-ylidene]-3-ethyl-4-oxo-thiazolidin-(5-(E/Z))-ylidenemethyl]-amino}-phenyl)-2-hydroxy-2-methyl-propionamide] | 53 nM | 1200 nM
3 | CCn1c(=C(C#N)C2=NC(C)(C)CO2)sc(=CNc2cccc(NC(=O)COCCOC)n2)c1=O (mixture of isomers) [Example 37, N-(6-{[2-[1-Cyano-1-(4,4-dimethyl-4,5-dihydro-oxazol-2-yl)-meth-(E or Z)-ylidene]-3-ethyl-4-oxo-thiazolidin-(5-(E/Z))-ylidenemethyl]-amino}-pyridin-2-yl)-2-(2-methoxy-ethoxy)-acetamide] | 69 nM | 3600 nM
4 | CCNc1cc(NC=c2sc(=C(C#N)C3=N[C@H]4CCC[C@H]4O3)n(CC)c2=O)ccn1 (mixture of isomers) [Example 38, [3-Ethyl-5-[1-(2-ethylamino-pyridin-4-ylamino)-meth-(E/Z)-ylidene]-4-oxo-thiazolidin-(2-(E or Z))-ylidene]-(3aS,6aR)-4,5,6,6a-tetrahydro-3aH-cyclopentaoxazol-2-yl-acetonitrile] | 24 nM | 1200 nM
5 | CCn1c(=C(C#N)C2=N[C@@H](C)CO2)sc(=CNc2cccc(NC(=O)C(C)(C)C)c2)c1=O [Example 20, N-(3-{[2-[1-Cyano-1-((S)-4-methyl-4,5-dihydro-oxazol-2-yl)-meth-(E or Z)-ylidene]-3-ethyl-4-oxo-thiazolidin-(5-(E/Z))-ylidenemethyl]-amino-phenyl)-2,2-dimethyl-propionamide] | 140 nM | 3200 nM
